Test results: the supplement of paper PMC10307832

Columns and labels:
Assay in all cases: relative viability (nuclei count vs DMSO), 5 days (fraction); higher = more cells survive
NCI-H1993 = test system: NCI-H1993
Method in brief: (§1)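 Relative viability is defined as nuclei in treated wells over nuclei in vehicle wells. Duplicate plates were run and medians reported. Lung cancer cell lines in 1536-well plates were dosed by pin tool one day after seeding, with one drug or with a fixed anchor-drug dose plus five library-drug doses (not always all listed) in √10 steps, and nuclei were counted after 5 days.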

LCLC-103H = test system: LCLC-103H
Method in brief: as §1

BEN = test system: BEN
Method in brief: as §1

NCI-H647 = test system: NCI-H647
Method in brief: as §1

LOU-NH91 = test system: LOU-NH91
Method in brief: as §1

NCI-H441 = test system: NCI-H441
Method in brief: as §1

NCI-H2347 = test system: NCI-H2347
Method in brief: as §1

NCI-H3122 = test system: NCI-H3122
Method in brief: as §1

NCI-H522 = test system: NCI-H522
Method in brief: as §1

NCI-H2126 = test system: NCI-H2126
Method in brief: as §1

HARA = conditions: first compound 0.01 µM
Method in brief: as §1

In the case of `O=c1cc(N2CCOCC2)oc2c(-c3cccc4c3sc3ccccc34)cccc12` + NC(=O)Nc1cc(-c2cccc(F)c2)sc1C(=O)N[C@H]1CCCNC1 [AZD7762] (partner 0.2 µM), the relative viability (NCI-H1993; first compound 0.01 µM) is reported as 0.832, the relative viability (NCI-H1993; first compound 0.03162 µM) is reported as 0.764 and the relative viability (NCI-H1993; first compound 0.1 µM) is reported as 0.779. It also gave a relative viability (NCI-H1993; first compound 0.3162 µM) of 0.692, a relative viability (NCI-H1993; first compound 1 µM) of 0.715 and a relative viability (LCLC-103H; first compound 0.01 µM) of 0.799. It also gave a relative viability (LCLC-103H; first compound 0.03162 µM) of 0.777, a relative viability (LCLC-103H; first compound 0.1 µM) of 0.804 and a relative viability (LCLC-103H; first compound 0.3162 µM) of 0.815. For the same molecule, the relative viability (LCLC-103H; first compound 1 µM) was 0.688, the relative viability (BEN; first compound 0.01 µM) was 0.576 and the relative viability (BEN; first compound 0.03162 µM) was 0.86. For the same molecule, the relative viability (BEN; first compound 0.1 µM) was 0.289, the relative viability (BEN; first compound 0.3162 µM) was 0.735 and the relative viability (BEN; first compound 1 µM) was 0.626. For the same molecule, the relative viability (NCI-H647; first compound 0.01 µM) was 0.371, the relative viability (NCI-H647; first compound 0.03162 µM) was 0.486 and the relative viability (NCI-H647; first compound 0.1 µM) was 0.0676. For the same molecule, the relative viability (NCI-H647; first compound 0.3162 µM) was 0.515, the relative viability (NCI-H647; first compound 1 µM) was 0.363 and the relative viability (LOU-NH91; first compound 0.01 µM) was 0.755. The relative viability (LOU-NH91; first compound 0.03162 µM) was 0.785, the relative viability (LOU-NH91; first compound 0.1 µM) was 0.803 and the relative viability (LOU-NH91; first compound 0.3162 µM) was 0.78. It also gave a relative viability (LOU-NH91; first compound 1 µM) of 0.751, a relative viability (NCI-H441; first compound 0.01 µM) of 1.06 and a relative viability (NCI-H441; first compound 0.03162 µM) of 1.03. It also gave a relative viability (NCI-H441; first compound 0.1 µM) of 1.09, a relative viability (NCI-H441; first compound 0.3162 µM) of 1.2 and a relative viability (NCI-H441; first compound 1 µM) of 1.01. For the same molecule, the relative viability (NCI-H2347; first compound 0.01 µM) was 0.843, the relative viability (NCI-H2347; first compound 0.03162 µM) was 0.791 and the relative viability (NCI-H2347; first compound 0.1 µM) was 0.601. The relative viability (NCI-H2347; first compound 0.3162 µM) was 0.714, the relative viability (NCI-H2347; first compound 1 µM) was 0.601 and the relative viability (NCI-H3122; first compound 0.01 µM) was 1.01. It also gave a relative viability (NCI-H3122; first compound 0.03162 µM) of 0.976, a relative viability (NCI-H3122; first compound 0.1 µM) of 0.731 and a relative viability (NCI-H3122; first compound 0.3162 µM) of 0.99. For the same molecule, the relative viability (NCI-H3122; first compound 1 µM) was 0.973, the relative viability (NCI-H522; first compound 0.01 µM) was 0.737 and the relative viability (NCI-H522; first compound 0.03162 µM) was 0.894. For the same molecule, the relative viability (NCI-H522; first compound 0.1 µM) was 0.504, the relative viability (NCI-H522; first compound 0.3162 µM) was 0.967 and the relative viability (NCI-H522; first compound 1 µM) was 0.775. The relative viability (NCI-H2126; first compound 0.01 µM) was 0.982, the relative viability (NCI-H2126; first compound 0.03162 µM) was 0.97 and the relative viability (NCI-H2126; first compound 0.1 µM) was 1.12. It also gave a relative viability (NCI-H2126; first compound 0.3162 µM) of 0.981, a relative viability (NCI-H2126; first compound 1 µM) of 1.02 and a relative viability (HARA) of 0.501.
